Results taken from PMC5504357, “Antifungal Potential of Copper(II), Manganese(II) and Silver(I) 1,10-Phenanthroline Chelates Against Multidrug-Resistant Fungal Species Forming the Candida haemulonii Complex: Impact on the Planktonic and Biofilm Lifestyles” (Frontiers in Microbiology, 2017).
≈ marks a conversion by molar mass, not a printed value. Where two headings read alike, the source gives them in different places.

Columns and labels:
Candida haemulonii [1] = experiment: Planktonic growth, broth microdilution (CLSI M27-A3), MIC; type: cell-based; conditions: Candidozyma haemuli
How it was run: (§1)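 Three clinical isolates per species (nail, blood, urine origin), grown in Sabouraud-dextrose 48 h at 37°C, were tested by CLSI M27-A3 broth microdilution in RPMI 1640 over 0.0625-32 mg/L. After 48 h at 37°C, MIC was the lowest concentration with no visible growth; the across-isolate value is a geometric mean MIC.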

Candida duobushaemulonii [2] = experiment: as above; type: cell-based; conditions: Candidozyma duobushaemuli
How it was run: as §1

[3] = tested on: Candida haemulonii var. vulnera; experiment: as above; type: cell-based; conditions: Candidozyma haemuli
How it was run: as §1

[4] = Mammalian cell toxicity (MTT assay) and selectivity index; type: cell-based, Human; conditions: human, A549 cells (human lung adenocarcinoma); MTT, 48 h incubation
How it was run: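 A549 cells were exposed to compounds (0.0313–512 μg/mL) in DMEM for 48 h at 37 °C, 5% CO2. Viability was measured by MTT (3 h, dark), with formazan dissolved in DMSO and read at 450 nm. CC50 was derived, and SI calculated as A549 CC50 divided by C. haemulonii complex GM-MIC.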

Candida haemulonii [5] = experiment: Biofilm-growing cells, XTT assay, bMIC; type: cell-based; conditions: for bMIC: mature biofilm, 48 h, 50% inhibition of metabolic activity
How it was run: (§2)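 Biofilms formed from 10^6 yeast cells in Sabouraud-dextrose broth, 48 h at 37 °C, then washed and exposed to compounds for a further 48 h at 37 °C. Metabolic activity read by XTT reduction; bMIC is the lowest concentration giving 50% inhibition versus compound-free wells.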

Candida duobushaemulonii [6] = experiment: Biofilm-growing cells, XTT assay, bMIC; type: cell-based; conditions: for bMIC: mature biofilm, 48 h, 50% inhibition of metabolic activity
How it was run: as §2

[7] = tested on: Candida haemulonii var. vulnera; experiment: Biofilm-growing cells, XTT assay, bMIC; type: cell-based; conditions: for bMIC: mature biofilm, 48 h, 50% inhibition of metabolic activity
How it was run: as §2

C. haemulonii complex = experiment: Planktonic growth, overall across all nine isolates; type: cell-based, Candida haemulonii complex; conditions: for MIC: Candidozyma haemuli, geometric mean across all nine strains, read-out: Overall GM-MIC
How it was run: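 Clinical isolates (nail, blood, urine) grown 48 h at 37°C in Sabouraud-dextrose, then tested by CLSI M27-A3 broth microdilution in RPMI 1640 over 0.0625-32 mg/L, 48 h at 37°C. MIC is the lowest concentration with no visible growth; geometric mean MIC calculated across all isolates.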

[8] = tested on: Candida haemulonii complex; experiment: Biofilm-growing cells, overall across isolates; type: cell-based; conditions: geometric mean across strains, values marked * do not include LIP Ch4 (>512)
How it was run: as §2

O=C1C(=O)c2cccnc2-c2ncccc21 [phendione, 1,10-phenanthroline-5,6-dione, reference compound]
MIC (Candida haemulonii [1]; 48 h, isolate LIP Ch4, planktonic, 48 h, 37°C, read-out: MIC): 2 µg/mL (≈ 9.52 µM)
MIC (Candida haemulonii [1]; 48 h, isolate LIP Ch7, planktonic, 48 h, 37°C, read-out: MIC): 2 µg/mL (≈ 9.52 µM)
MIC (Candida haemulonii [1]; 48 h, isolate LIP Ch12, planktonic, 48 h, 37°C, read-out: MIC): 2 µg/mL (≈ 9.52 µM)
MIC (Candida haemulonii [1]; geometric mean of three C. haemulonii isolates, read-out: GM-MIC): 2 µg/mL (≈ 9.52 µM)
MIC (Candida duobushaemulonii [2]; 48 h, isolate LIP Ch1, planktonic, 48 h, 37°C, read-out: MIC): 2 µg/mL (≈ 9.52 µM)
MIC (Candida duobushaemulonii [2]; 48 h, isolate LIP Ch6, planktonic, 48 h, 37°C, read-out: MIC): 4 µg/mL (≈ 19 µM)
MIC (Candida duobushaemulonii [2]; 48 h, isolate LIP Ch8, planktonic, 48 h, 37°C, read-out: MIC): 2 µg/mL (≈ 9.52 µM)
MIC (Candida duobushaemulonii [2]; geometric mean of three C. duobushaemulonii isolates, read-out: GM-MIC): 2.52 µg/mL (≈ 12 µM)
MIC ([3]; 48 h, isolate LIP Ch5, planktonic, 48 h, 37°C, read-out: MIC): 2 µg/mL (≈ 9.52 µM)
MIC ([3]; 48 h, isolate LIP Ch9, planktonic, 48 h, 37°C, read-out: MIC): 2 µg/mL (≈ 9.52 µM)
MIC ([3]; 48 h, isolate LIP Ch11, planktonic, 48 h, 37°C, read-out: MIC): 2 µg/mL (≈ 9.52 µM)
MIC ([3]; geometric mean of three C. haemulonii var. vulnera isolates, read-out: GM-MIC): 2 µg/mL (≈ 9.52 µM)
CC50 at 48 h [4]: 2.02 µg/mL (≈ 9.61 µM)
GM-bMIC (Candida haemulonii [5]; geometric mean, C. haemulonii isolates, values marked * do not include LIP Ch4 (>512)): 11.31^* mg/L
bMIC (Candida haemulonii [5]; isolate LIP Ch4): >512 mg/L
bMIC (Candida haemulonii [5]; isolate LIP Ch7): 8 mg/L
bMIC (Candida haemulonii [5]; isolate LIP Ch14): 16 mg/L
GM-bMIC (Candida duobushaemulonii [6]; geometric mean, C. duobushaemulonii isolates): 12.70 mg/L
bMIC (Candida duobushaemulonii [6]; isolate LIP Ch1): 4 mg/L
bMIC (Candida duobushaemulonii [6]; isolate LIP Ch6): 32 mg/L
bMIC (Candida duobushaemulonii [6]; isolate LIP Ch8): 16 mg/L
GM-bMIC ([7]; geometric mean, C. haemulonii var. vulnera isolates): 20.16 mg/L
bMIC ([7]; isolate LIP Ch5): 16 mg/L
bMIC ([7]; isolate LIP Ch9): 16 mg/L
bMIC ([7]; isolate LIP Ch13): 32 mg/L
MIC (C. haemulonii complex; in μM): 10.3 µM
MIC (C. haemulonii complex): 2.16 µg/mL
effect on planktonic fungal growth/viability (in words) (C. haemulonii complex; nine clinical isolates, 0.0625-32 mg/L): appreciably deterred fungal growth
Overall GM-bMIC ([8]; in μM): 76 µM
Overall GM-bMIC [8]: 14.67 mg/L
